This is an account of results in ChEMBL document CHEMBL1153286, “Synthesis and biological evaluation of sulfonylurea and thiourea derivatives substituted with benzenesulfonamide groups as potential hypoglycemic agents” (Bioorg Med Chem Lett, 2009).

Holding throughout (type): functional
Assay [1] can be described thus: Effect on insulin release in rat pancreatic cells at 1 umol/L after 6 hrs by radioimmunoassay.
Assay [2] can be described thus: Effect on insulin release in rat pancreatic cells at 10 umol/L after 6 hrs by radioimmunoassay.
The nature of assay [3]: Effect on insulin release in rat pancreatic cells at 100 umol/L after 6 hrs by radioimmunoassay.
The subject of assay [4] is Adipocyte. Description: Effect on 2-deoxy-D-[1-3H]glucose transport in Sprague-Dawley rat adipocytes at 1 uM in absence of insulin by liquid scintillation counting.
In assay [5] the test system is Adipocyte. Description: Effect on 2-deoxy-D-[1-3H]glucose transport in Sprague-Dawley rat adipocytes at 1 uM in presence of insulin by liquid scintillation counting.
For assay [6], the system named is Adipocyte. Description: Effect on 2-deoxy-D-[1-3H]glucose transport in Sprague-Dawley rat adipocytes at 10 uM in absence of insulin by liquid scintillation counting.
In assay [7] the test system is Adipocyte. Description: Effect on 2-deoxy-D-[1-3H]glucose transport in Sprague-Dawley rat adipocytes at 10 uM in presence of insulin by liquid scintillation counting.
Assay [8] relates to Adipocyte. In words: Effect on 2-deoxy-D-[1-3H]glucose transport in Sprague-Dawley rat adipocytes at 100 uM in absence of insulin by liquid scintillation counting.
Assay [9] deals with Adipocyte. Description: Effect on 2-deoxy-D-[1-3H]glucose transport in Sprague-Dawley rat adipocytes at 100 uM in presence of insulin by liquid scintillation counting.
Assay [10] relates to Adipocyte. Description: Increase in glucose absorption in Sprague-Dawley rat adipocytes at 100 uM by liquid scintillation counting relative to basal level.

Molecules are shown by their SMILES.

Take `COc1ccc(NC(=S)NS(=O)(=O)c2ccc(CCNS(=O)(=O)c3ccc(Cl)cc3)cc2)cc1`: the figures for the Activity in assay [1], in assay [2] and in [3] were 24.05 uIU/ml, 24.36 uIU/ml and 26.09 uIU/ml, respectively.
As to `O=C(NC1CCCCC1)NS(=O)(=O)c1ccc(CCNS(=O)(=O)c2ccc(Br)cc2)cc1`, the Activity in [1] is 32.09 uIU/ml; in assay [2], 45.01 uIU/ml; in assay [3], 65.98 uIU/ml; in [4], 4421.72 disintegrations/minute; in [5], 5523.89 disintegrations/minute; in assay [6], 4861.54 disintegrations/minute. For the same compound, the Activity is recorded as 6002.46 disintegrations/minute in assay [7], 6556.61 disintegrations/minute in assay [8] and 7896.14 disintegrations/minute in assay [9].
As to `CC(=O)Nc1ccc(S(=O)(=O)NCCc2ccc(S(=O)(=O)NC(=O)NC3CCC(C)CC3)cc2)cc1` (stereo unspecified), the Activity was 30.18 uIU/ml in assay [1]; 36.67 uIU/ml in assay [2]; 28.52 uIU/ml in assay [3]; 4215.36 disintegrations/minute in assay [4]; 5087.78 disintegrations/minute in assay [5]; 5616.15 disintegrations/minute in assay [6]. Besides, the Activity in assay [7] is recorded as 6200.35 disintegrations/minute; in assay [8] it was 6736.82 disintegrations/minute; in assay [9] it was 6812.33 disintegrations/minute.
Regarding `COc1cc(S(=O)(=O)NCCc2ccc(S(=O)(=O)NC(=O)NC3CCC(C)CC3)cc2)ccc1NC(C)=O` (stereo unspecified), the Activity in assay [1] is 24.57 uIU/ml; in [2], 24.47 uIU/ml; in assay [3], 24.83 uIU/ml; in assay [4], 5294.78 disintegrations/minute; in assay [5] it was 5587.26 disintegrations/minute; in assay [6] it was 6547.93 disintegrations/minute. The Activity stood at 6341.17 disintegrations/minute in assay [7], 7037.78 disintegrations/minute in assay [8] and 7447.72 disintegrations/minute in assay [9]. Also, the “fold change (FC)” value in [10] is given as 1.58.
As for `O=S(=O)(NCCc1ccc(S(=O)(=O)NC(=S)Nc2ccc(Cl)cc2)cc1)c1ccccc1`, the Activity in assay [1] is 28.94 uIU/ml; in assay [2], 32.1 uIU/ml; in assay [3], 26.06 uIU/ml.
Regarding `Cc1ccc(NC(=S)NS(=O)(=O)c2ccc(CCNS(=O)(=O)c3ccc(C)cc3)cc2)cc1`, the Activity in assay [1] was 21.99 uIU/ml; in assay [2], 24.24 uIU/ml; in assay [3], 20.87 uIU/ml; in assay [4] it was 4428.46 disintegrations/minute; in [5], 5627.67 disintegrations/minute; in assay [6], 4401.01 disintegrations/minute. The Activity in assay [7] is reported as 5115.32 disintegrations/minute; in assay [8], 4513.06 disintegrations/minute; in [9] it was 5624.51 disintegrations/minute.
Regarding `Cc1ccc(S(=O)(=O)NCCc2ccc(S(=O)(=O)NC(=S)Nc3ccc(Cl)cc3)cc2)cc1`, the Activity in [1] amounted to 23.89 uIU/ml; in [2], 23.01 uIU/ml; in assay [3], 22.25 uIU/ml; in assay [4], 5687.31 disintegrations/minute; in assay [5], 5115.18 disintegrations/minute; in [6], 6514.04 disintegrations/minute. The Activity in assay [7] is on record as 5512.62 disintegrations/minute; in [8], 7061.15 disintegrations/minute; in assay [9] it was 7832.17 disintegrations/minute. In assay [10], the “fold change (FC)” value was 1.59.
`COc1ccc(NC(=S)NS(=O)(=O)c2ccc(CCNS(=O)(=O)c3ccc(C)cc3)cc2)cc1`: the Activity was 24.48 uIU/ml in assay [1]; 23.5 uIU/ml in assay [2]; 23.69 uIU/ml in assay [3]; 4425.16 disintegrations/minute in assay [4]; 5026.34 disintegrations/minute in assay [5]; 4381.35 disintegrations/minute in [6]. Moreover, the Activity in [7] is on record as 5377.15 disintegrations/minute; in [8] it was 4550.21 disintegrations/minute; in assay [9] it was 5573.24 disintegrations/minute.
Take `COc1ccc(NC(=S)NS(=O)(=O)c2ccc(CCNS(=O)(=O)c3ccc(Br)cc3)cc2)cc1`: the Activity in assay [1] came out at 22.25 uIU/ml; in assay [2] it was 24.67 uIU/ml; in assay [3] it was 26.17 uIU/ml; in assay [4], 4125.36 disintegrations/minute; in assay [5], 5177.84 disintegrations/minute; in [6], 4026.52 disintegrations/minute. The Activity in [7] was 5234.61 disintegrations/minute; in assay [8], 4335.26 disintegrations/minute; in assay [9], 5069.25 disintegrations/minute.
In the case of `O=C(NC1CCCCC1)NS(=O)(=O)c1ccc(CCNS(=O)(=O)c2ccc(Cl)cc2)cc1`, the Activity is reported as 33.95 uIU/ml in assay [1]; 41.18 uIU/ml in assay [2]; 55.03 uIU/ml in assay [3]; 4576.35 disintegrations/minute in assay [4]; 5217.31 disintegrations/minute in [5]; 5878.83 disintegrations/minute in assay [6]. For the same compound, the Activity in [7] was found to be 5933.89 disintegrations/minute; in assay [8] it was 6632.7 disintegrations/minute; in assay [9], 6521.12 disintegrations/minute.
For `COc1ccc(NC(=S)NS(=O)(=O)c2ccc(CCNS(=O)(=O)c3ccccc3)cc2)cc1`, the Activity in assay [1] stood at 22.86 uIU/ml; in assay [2] it was 24.98 uIU/ml; in assay [3], 23.42 uIU/ml; in assay [4], 4179.5 disintegrations/minute; in [5], 5708.43 disintegrations/minute; in assay [6] it was 4118.78 disintegrations/minute. Further, the Activity turned out to be 7555.71 disintegrations/minute in assay [7], 4366.76 disintegrations/minute in assay [8] and 6987.19 disintegrations/minute in assay [9].
Consider `Cc1ccc(NC(=S)NS(=O)(=O)c2ccc(CCNS(=O)(=O)c3ccccc3)cc2)cc1`, for which the Activity turned out to be 27.99 uIU/ml in assay [1]; 27.71 uIU/ml in [2]; 24.97 uIU/ml in [3]; 4377.95 disintegrations/minute in [4]; 5319.5 disintegrations/minute in assay [5]; 4385.12 disintegrations/minute in [6]. The Activity in [7] came to 5644.89 disintegrations/minute; in [8], 4663.52 disintegrations/minute; in [9] it was 5761.23 disintegrations/minute.
For the compound `CC1CCC(NC(=O)NS(=O)(=O)c2ccc(CCNS(=O)(=O)c3ccccc3)cc2)CC1` (stereo unspecified), the results for the Activity in [1], in [2] and in assay [3] were 32.15 uIU/ml, 41.29 uIU/ml and 52.23 uIU/ml, respectively.
On to `CC(=O)Nc1ccc(S(=O)(=O)NCCc2ccc(S(=O)(=O)NC(=O)NC3CCC(C)CC3)cc2)cc1C` (stereo unspecified), for which the Activity in assay [1] came to 23.57 uIU/ml; in assay [2] it was 27.67 uIU/ml; in [3], 37.32 uIU/ml; in assay [4], 4302.19 disintegrations/minute; in assay [5], 6123.02 disintegrations/minute; in assay [6], 4573.8 disintegrations/minute. The Activity in assay [7] was found to be 6516.9 disintegrations/minute; in [8], 5207.81 disintegrations/minute; in assay [9], 7244.87 disintegrations/minute.
Take `O=S(=O)(NCCc1ccc(S(=O)(=O)NC(=S)Nc2ccc(Cl)cc2)cc1)c1ccc(Cl)cc1`: the Activity is reported as 29.46 uIU/ml in assay [1]; 26.37 uIU/ml in assay [2]; 26.07 uIU/ml in assay [3]; 4587.26 disintegrations/minute in assay [4]; 5179.3 disintegrations/minute in [5]; 4432.15 disintegrations/minute in [6]. In addition, the results for the Activity in [7], in assay [8] and in assay [9] were 5436.58 disintegrations/minute, 4763.58 disintegrations/minute and 5764.25 disintegrations/minute, respectively.
On to `O=C(NC1CCCCC1)NS(=O)(=O)c1ccc(CCNS(=O)(=O)c2ccccc2)cc1`, for which the Activity is 22.86 uIU/ml in assay [1], 28.27 uIU/ml in [2] and 31.29 uIU/ml in assay [3].
For `Cc1ccc(S(=O)(=O)NCCc2ccc(S(=O)(=O)NC(=O)NC3CCCCC3)cc2)cc1`, the Activity in assay [1] is reported as 22.45 uIU/ml; in assay [2] it was 22.7 uIU/ml; in assay [3] it was 25.93 uIU/ml; in [4] it was 4281.3 disintegrations/minute; in assay [5] it was 5374.21 disintegrations/minute; in assay [6], 4174.59 disintegrations/minute. Moreover, the Activity was 5533.15 disintegrations/minute in assay [7], 4458.36 disintegrations/minute in [8] and 5297.11 disintegrations/minute in assay [9].
